Values of other authors as cited in publication PMC12650809, “Evolving Therapeutic Landscape of ROS1-Positive Non-Small Cell Lung Cancer: An Updated Review” (Current Oncology, 2025).
Read-outs that look alike come from different tables or passages of the source. Marks after values point to notes of the source that are not given here. Each block holds one compound with its values, some of them ahead of it.

How the values were obtained:
ROS1^L2086F = tested on: ROS1^L2086F; design: method as in PMID 38070596; conditions: for resistance or activity with L2086F: ATP-binding pocket; for resistance or sensitivity conferred by ROS1^L2086F: L2086F alone or in combination with G2032R or S1986F, preclinical models
ROS1-positive NSCLC [1] = tested on: ROS1-positive NSCLC; design: method as in earlier work; conditions: TKI-pretreated patients; WCLC 2025 Abstract 4540
ROS1-positive NSCLC [2] = tested on: ROS1-positive NSCLC
ROS1^G2032R = tested on: ROS1^G2032R; design: method as in PMID 38070596; conditions: solvent-front substitution
ROS1-positive NSCLC [3] = tested on: ROS1-positive NSCLC; remark: listed apart in the source
ROS1-positive NSCLC [4] = conditions: for TKI-Naive ORR (%) / mPFS (Months): TKI-naïve patients; for IC-ORR (%): TKI-naïve patients evaluable for intracranial ORR
ROS1-positive NSCLC [5] = tested on: ROS1-positive NSCLC; design: method as in PMID 28520527
[6] = tested on: advanced ROS1-positive NSCLC
[7] = 13 patients harboring ROS1^G2032R
[8] = previously treated with a ROS1 TKI, n = 113
[9] = eight patients with baseline BMs
[10] = isolated intracranial progression on crizotinib, n = 18

SMILES: CCc1nc(C(N)=O)c(Nc2ccc(N3CCC(N4CCN(C)CC4)CC3)c(OC)c2)nc1NC1CCOCC1 [gilteritinib]
resistance or activity with L2086F (ROS1^L2086F): preclinical efficacy

SMILES: COc1cc2nccc(Oc3ccc(NC(=O)C4(C(=O)Nc5ccc(F)cc5)CC4)cc3)c2cc1OC [cabozantinib]
resistance or sensitivity conferred by ROS1^L2086F (ROS1^L2086F): potentially retaining sensitivity
resistance or activity with L2086F (ROS1^L2086F): preclinical efficacy

SMILES: C[C@@H](N)COc1ccc(-c2cnc3ccc(N[C@H](C)c4cccc(F)c4)nn23)cc1 [Taletrectinib, taletrectinib]
IC-ORR (%) (ROS1-positive NSCLC [1]): 65.6%
TKI-Pretreated ORR (%) (ROS1-positive NSCLC [1]): 55.8%
mPFS (Months) (ROS1-positive NSCLC [1]): 9.7 Months
Notable AEs: QT prolongation (ROS1-positive NSCLC [2]): 18%
Notable AEs: diarrhea (ROS1-positive NSCLC [2]): 61%
Notable AEs: dizziness (ROS1-positive NSCLC [2]): 15%
Notable AEs: increased AST/ALT (ROS1-positive NSCLC [2]): 70%
Notable AEs: nausea (ROS1-positive NSCLC [2]): 44%
Notable AEs: vomiting (ROS1-positive NSCLC [2]): 41%
Main Grade ≥ 3 AEs: QT prolongation (ROS1-positive NSCLC [2]; grade ≥ 3): 3%
Main Grade ≥ 3 AEs: anemia (ROS1-positive NSCLC [2]; grade ≥ 3): 3%
Main Grade ≥ 3 AEs: diarrhea (ROS1-positive NSCLC [2]; grade ≥ 3): 3%
Main Grade ≥ 3 AEs: increased AST/ALT (ROS1-positive NSCLC [2]; grade ≥ 3): 9%
Main Grade ≥ 3 AEs: neutropenia (ROS1-positive NSCLC [2]; grade ≥ 3): 4%
resistance or sensitivity with ROS1^G2032R (ROS1^G2032R): some sensitivity
resistance or activity with L2086F (ROS1^L2086F): cross-resistance
rate of treatment discontinuation due to toxicity (ROS1-positive NSCLC [3]): 6.5%
objective response rate (ROS1-positive NSCLC [3]; [7]): 61.5%
patients with objective response (number) (ROS1-positive NSCLC [3]; [7]): 8
diarrhea (ROS1-positive NSCLC [3]; AEs, predominantly grade 1): 61%
nausea (ROS1-positive NSCLC [3]; AEs, predominantly grade 1): 44%
transaminase elevation (ROS1-positive NSCLC [3]; AEs, predominantly grade 1): 70%
confirmed ORR (ROS1-positive NSCLC [3]; TKI-naïve patients, n = 160): 88.8%
median DOR (ROS1-positive NSCLC [3]; TKI-naïve patients, n = 160): 44.2 months
median PFS (ROS1-positive NSCLC [3]; TKI-naïve patients, n = 160): 45.6 months
intracranial ORR (ROS1-positive NSCLC [3]; TKI-naïve, measurable BMs): 76.5%
median intracranial DOR (ROS1-positive NSCLC [3]; TKI-naïve, measurable BMs): 14.7 months
dizziness (ROS1-positive NSCLC [3]; neurological events): 21%
dysgeusia (ROS1-positive NSCLC [3]; neurological events): 15%
intracranial ORR (ROS1-positive NSCLC [3]; previously treated with a ROS1 TKI): 65.6%
ORR (ROS1-positive NSCLC [3]; [8]): 55.8%
median DOR (ROS1-positive NSCLC [3]; [8]): 16.6 months
median PFS (ROS1-positive NSCLC [3]; [8]): 9.7 months
TKI-Naive ORR (%) (ROS1-positive NSCLC [4]): 88.8%
mPFS (Months) (ROS1-positive NSCLC [4]): 45.6 Months
IC-ORR (%) (ROS1-positive NSCLC [4]): 76.5 ^e %

dose reductions required (ROS1-positive NSCLC [5]): 68%
SMILES: Cc1cc(Nc2ncc(Cl)c(Nc3ccccc3S(=O)(=O)C(C)C)n2)c(OC(C)C)cc1C1CCNCC1 [Ceritinib, ceritinib]
ORR (ROS1-positive NSCLC [5]; 32 patients): 62%
median DOR (ROS1-positive NSCLC [5]; 32 patients): 21 months
anorexia (ROS1-positive NSCLC [5]; AEs, predominantly grade 1–2): 56%
diarrhea (ROS1-positive NSCLC [5]; AEs, predominantly grade 1–2): 85%
nausea (ROS1-positive NSCLC [5]; AEs, predominantly grade 1–2): 72%
vomiting (ROS1-positive NSCLC [5]; AEs, predominantly grade 1–2): 45%
ORR (ROS1-positive NSCLC [5]; crizotinib-naïve patients): 67%
median OS (ROS1-positive NSCLC [5]; crizotinib-naïve patients): 24 months
median PFS (ROS1-positive NSCLC [5]; crizotinib-naïve patients): 19.3 months
CNS disease control rate (ROS1-positive NSCLC [5]; [9]): 63%
patients achieving an objective intracranial response (ROS1-positive NSCLC [5]; [9]): two
TKI-Naive ORR (%) (ROS1-positive NSCLC [4]): 67%
mPFS (Months) (ROS1-positive NSCLC [4]): 19.3 Months
IC-ORR (%) (ROS1-positive NSCLC [4]): 25 ^b %

SMILES: CN1CCN(c2ccc(C(=O)Nc3n[nH]c4ccc(Cc5cc(F)cc(F)c5)cc34)c(NC3CCOCC3)c2)CC1 [Entrectinib, entrectinib]
resistance or sensitivity with ROS1^G2032R (ROS1^G2032R): high-level resistance
resistance or sensitivity conferred by ROS1^L2086F (ROS1^L2086F): cross-resistance
ORR ([6]; 168 TKI-naïve patients): 68%
complete responses ([6]; 168 TKI-naïve patients): 13%
median DOR ([6]; 168 TKI-naïve patients): 20.5 months
median OS ([6]; 168 TKI-naïve patients): 47.8 months
median PFS ([6]; 168 TKI-naïve patients): 15.7 months
median intracranial DOR ([6]; baseline BMs): 12.9 months
intracranial ORR ([6]; baseline BMs with measurable disease): 80%
global ORR [6, 10]: 11%
intracranial ORR [6, 10]: 19%
median PFS [6, 10]: 4.7 months
TKI-Naive ORR (%) (ROS1-positive NSCLC [4]): 68%
mPFS (Months) (ROS1-positive NSCLC [4]): 15.7 Months
IC-ORR (%) (ROS1-positive NSCLC [4]): 80 ^a %
